The record followed here is US20100249071A1, “Modulators of S1P and Methods of Making And Using” (Exelixis, Inc., priority 2009, published 2010).

Read-outs that look alike come from different tables or passages of the source.

In experiment [1] the target is T1, hS1PR5 (hEdg8) membrane protein (Homo sapiens, UniProt Q9H228).
T1 construct: expressed in transfected cells; host or cells: CHO
Kind of experiment: hS1P5R GTPγS binding assay (Assay 4). Type of experiment: biochemical. The method in brief:
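Membranes (5 μg) from CHO cells expressing hS1PR5, incubated 1 h at room temperature with 30 μM GDP, 0.1 nM [35S]GTPγS, 0.25% fatty acid free BSA and serially diluted compound in pH 7.9 Tris buffer with MgCl2. WGA SPA beads added for another 1 h, then bound [35S]GTPγS counted by scintillation.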

Experiment [2] has as its target T2, hS1P1R (hEdg1) membrane protein (Homo sapiens, UniProt P21453).
T2 construct: purchased Lonza
In words: hS1P1R GTPγS binding assay (Assay 3a). Type of experiment: biochemical. The method in brief:
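Membranes (4 μg) expressing hS1P1R incubated 1 h at room temperature with 30 μM GDP, 0.1 nM [^35S]GTPγS, 0.25% fatty acid free BSA and serially diluted agonist in Tris-HCl pH 7.9/NaCl/MgCl2/EGTA buffer. Bound [^35S]GTPγS captured on WGA SPA beads (further 1 h) and counted.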
In general terms: GTPγS is a poorly hydrolysed GTP analogue; its binding reports G protein activation.

Experiment [3] addresses T3, S1P1 (Homo sapiens, UniProt P21453).
T3 construct: host or cells: U2OS
In words: Tango β-arrestin recruitment assay in U2OS cells (Assay 2b). Type of experiment: cell-based. The gist of the method:
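In this agonist-mode Tango assay, U2OS cells carrying S1P1 and the reporter were serum-starved 48 h, then exposed overnight at 37 °C to compound (10 points, 3-fold, top 1 μM, 1% DMSO). β-Lactamase F460/F530 ratio was normalized to 1 μM S1P, and EC50 was fitted.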
For orientation: Recruitment of arrestin is a read-out of receptor activation apart from second messengers.

In experiment [4] the target is T4, S1P3 (Homo sapiens, UniProt Q99500).
T4 construct: host or cells: HEK293 (transient transfection)
In words: S1P3 Tango β-arrestin recruitment assay in HEK293 cells (Assay 5). Type of experiment: cell-based. The note with it: read-out: Assay 5 EC50. The gist of the method: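 HEK293 cells transiently expressing S1P3 fused via TEV-cleavable linker to tTA, with β-arrestin2–TEV, treated 16-18 h at 37 °C with compounds (top 10 μM, 10-point 3-fold, 1% DMSO). Luciferase reporter luminescence normalised to DMSO background and 5 μM S1P control as percent activity; EC50 from concentration-response curves.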

Where [5] appears, read: * = rEC50 measured rather than EC50, read-out: Assay 2b rEC50 (relative EC50, cells marked *).

T1 sequence (Q9H228 whole entry): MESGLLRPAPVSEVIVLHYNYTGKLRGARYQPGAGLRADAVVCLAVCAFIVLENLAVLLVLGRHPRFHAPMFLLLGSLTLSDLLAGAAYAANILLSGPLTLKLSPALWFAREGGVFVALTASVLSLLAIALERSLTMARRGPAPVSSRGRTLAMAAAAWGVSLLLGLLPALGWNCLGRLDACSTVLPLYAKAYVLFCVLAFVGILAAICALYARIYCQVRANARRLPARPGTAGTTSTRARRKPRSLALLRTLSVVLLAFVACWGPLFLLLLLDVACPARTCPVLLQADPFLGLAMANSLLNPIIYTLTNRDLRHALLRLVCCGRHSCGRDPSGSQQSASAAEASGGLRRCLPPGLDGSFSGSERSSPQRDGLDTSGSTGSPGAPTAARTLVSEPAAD
T2 sequence (P21453 whole entry): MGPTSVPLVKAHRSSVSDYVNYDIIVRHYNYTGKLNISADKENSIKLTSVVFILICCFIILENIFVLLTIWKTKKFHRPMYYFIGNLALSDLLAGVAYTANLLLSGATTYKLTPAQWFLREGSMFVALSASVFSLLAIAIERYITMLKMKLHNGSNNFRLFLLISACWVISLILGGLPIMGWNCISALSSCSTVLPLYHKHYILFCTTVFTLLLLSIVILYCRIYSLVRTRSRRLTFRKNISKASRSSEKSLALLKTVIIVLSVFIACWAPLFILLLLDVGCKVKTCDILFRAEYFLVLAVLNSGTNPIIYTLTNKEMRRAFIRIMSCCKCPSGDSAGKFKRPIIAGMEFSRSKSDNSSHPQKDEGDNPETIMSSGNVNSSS
T4 sequence (P32121 whole entry): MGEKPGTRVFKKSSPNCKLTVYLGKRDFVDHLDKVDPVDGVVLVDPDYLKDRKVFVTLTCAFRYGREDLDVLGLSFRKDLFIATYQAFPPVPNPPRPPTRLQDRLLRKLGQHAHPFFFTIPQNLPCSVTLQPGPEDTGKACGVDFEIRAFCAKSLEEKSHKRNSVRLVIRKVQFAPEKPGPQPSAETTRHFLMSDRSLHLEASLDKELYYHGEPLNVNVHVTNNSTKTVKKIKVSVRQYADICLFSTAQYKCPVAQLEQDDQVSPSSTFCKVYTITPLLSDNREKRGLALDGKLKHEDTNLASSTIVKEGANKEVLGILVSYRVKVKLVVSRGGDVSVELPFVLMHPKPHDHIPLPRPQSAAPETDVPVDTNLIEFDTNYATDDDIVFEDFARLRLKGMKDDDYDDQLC
T4 sequence (Q99500 whole entry): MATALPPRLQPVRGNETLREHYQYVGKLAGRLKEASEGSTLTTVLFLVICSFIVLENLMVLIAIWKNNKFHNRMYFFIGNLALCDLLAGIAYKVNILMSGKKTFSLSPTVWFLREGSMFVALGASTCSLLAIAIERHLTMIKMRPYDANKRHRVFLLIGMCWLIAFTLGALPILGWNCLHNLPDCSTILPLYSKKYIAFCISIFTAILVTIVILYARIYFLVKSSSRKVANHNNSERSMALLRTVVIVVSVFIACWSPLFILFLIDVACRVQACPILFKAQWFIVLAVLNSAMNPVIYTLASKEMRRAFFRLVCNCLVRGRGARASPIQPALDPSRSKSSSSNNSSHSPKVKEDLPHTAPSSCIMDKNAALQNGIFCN
T3 sequence (P32121 whole entry): as the sequence (P32121 whole entry) above
T3 sequence (P21453 whole entry): as the sequence (P21453 whole entry) above

For orientation: EC50 means the concentration giving half of the maximal effect. On to `CC(C)Oc1ncc(-c2nnc(-c3cc(F)c(OCC(N)CO)cc3Cl)s2)cc1Cl` (stereo not drawn) [Entry 6, 2-amino-3-{[5-chloro-4-(5-{5-chloro-6-[(1-methylethyl)oxy]pyridin-3-yl}-1,3,4-thiadiazol-2-yl)-2-fluorophenyl]oxy}propan-1-ol], for which the EC50 in experiment [1] is 250 to 2800 nM; in experiment [2], 10 to 50 nM; in experiment [3] (read-out: Assay 2b EC50), no more than 10 nM; in experiment [4], no more than 250 nM.

Turning to `CC(C)N(C)c1cc(-c2nnc(-c3cc(F)c(OC[C@H](N)CO)cc3Cl)s2)cc(Cl)n1` [Entry 21, (2R)-2-amino-3-{[5-chloro-4-(5-{2-chloro-6-[methyl(1-methylethyl)amino]pyridin-4-yl}-1,3,4-thiadiazol-2-yl)-2-fluorophenyl)oxy}propan-1-ol], the EC50 in experiment [1] was 50 to 250 nM; in experiment [2], 50 to 250 nM; in experiment [3] (read-out: Assay 2b EC50) it was 10 to 50 nM; in experiment [4] it was greater than 10000 nM.

For the molecule `CC(C)Oc1ccc(-c2nnc(-c3cc(F)c(OC[C@H](N)[C@@H](C)OP(=O)(O)O)cc3Cl)s2)cc1Cl` [Entry 51, (1R,2S)-2-amino-3-{[5-chloro-4-(5-{3-chloro-4-[(1-methylethyl)oxy]phenyl}-1,3,4-thiadiazol-2-yl)-2-fluorophenyl]oxy}-1-methylpropyl dihydrogen phosphate], the EC50 in experiment [1] is no more than 10 nM; in experiment [2], no more than 10 nM; in experiment [3] (read-out: Assay 2b EC50), no more than 10 nM; in experiment [4], no more than 250 nM.

Turning to `CC(C)Oc1ccc(-c2nnc(-c3cc(F)c(OC[C@H](N)CO)cc3Cl)s2)cc1C(N)=O` [Entry 80, 5-[5-(4-{[(2R)-2-amino-3-hydroxypropyl]oxy}-2-chloro-5-fluorophenyl)-1,3,4-thiadiazol-2-yl]-2-[(1-methylethyl)oxy]benzamide], the concentration giving a half-maximal response (EC50) in experiment [1] was 250 to 2800 nM; in experiment [2], 250 to 2800 nM; in experiment [3] (setting [5]) it was 250 to 2800 nM; in experiment [4], greater than 10000 nM.

With `N[C@H](CO)COc1cc(Cl)c(-c2nnc(-c3cccc(Cl)c3)s2)cc1F` [Entry 15, (2R)-2-amino-3-({5-chloro-4-[5-(3-chlorophenyl)-1,3,4-thiadiazol-2-yl]-2-fluorophenyl}oxy)propan-1-ol], the EC50 is 250 to 2800 nM in experiment [1], 250 to 2800 nM in experiment [2], 10 to 50 nM in experiment [3] (read-out: Assay 2b EC50) and greater than 10000 nM in experiment [4].

Turning to `CC(C)Nc1ccc(-c2nnc(-c3cc(F)c(OC[C@@H](N)[C@H](C)O)cc3Cl)s2)cn1` [Entry 59, (2S,3R)-3-amino-4-{[5-chloro-2-fluoro-4-(5-{6-[(1-methylethyl)amino]pyridin-3-yl}-1,3,4-thiadiazol-2-yl)phenyl]oxy}butan-2-ol], the EC50 in experiment [1] is 250 to 2800 nM; in experiment [2], 250 to 2800 nM; in experiment [3] (read-out: Assay 2b EC50), no more than 10 nM; in experiment [4], greater than 10000 nM.

In the case of `CC(C)Oc1ncc(-c2nnc(-c3cc(F)c(OC[C@H](N)CO)cc3Cl)s2)cc1Cl` [Entry 20, (2R)-2-amino-3-{[5-chloro-4-(5-{5-chloro-6-[(1-methylethyl)oxy]pyridin-3-yl}-1,3,4-thiadiazol-2-yl)-2-fluorophenyl]oxy}propan-1-ol], the EC50 in experiment [1] was 250 to 2800 nM; in experiment [2], 50 to 250 nM; in experiment [3] (read-out: Assay 2b EC50), 250 to 2800 nM; in experiment [4], greater than 10000 nM.

Turning to `Cc1cc(-c2nnc(-c3cc(F)c(OC[C@H](N)[C@@H](C)OP(=O)(O)O)cc3Cl)s2)cc(NC(C)C)n1` [Entry 94, (1R,2S)-2-amino-3-{[5-chloro-2-fluoro-4-(5-{2-methyl-6-[(1-methylethyl)amino]pyridin-4-yl}-1,3,4-thiadiazol-2-yl)phenyl]oxy}-1-methylpropyl dihydrogen phosphate], the EC50 in experiment [1] was 10 to 50 nM; in experiment [2] it was no more than 10 nM; in experiment [3] (setting [5]), no more than 10 nM; in experiment [4], no more than 250 nM.

Turning to `CC(C)Oc1ccc(-c2nnc(-c3cc(F)c(OC[C@H](N)CO)cc3Cl)s2)cn1` [Entry 35, (2R)-2-amino-3-{[5-chloro-2-fluoro-4-(5-{6-[(1-methylethyl)oxy]pyridin-3-yl}-1,3,4-thiadiazol-2-yl)phenyl]oxy}propan-1-ol], the EC50 in experiment [1] is 250 to 2800 nM; in experiment [2], 250 to 2800 nM; in experiment [3] (read-out: Assay 2b EC50), 50 to 250 nM; in experiment [4], greater than 10000 nM.

On to `CC(C)Nc1ccc(-c2nnc(-c3cc(F)c(OC[C@@H](N)[C@H](C)OP(=O)(O)O)cc3Cl)s2)cn1` [Entry 93, (1S,2R)-2-amino-3-{[5-chloro-2-fluoro-4-(5-{6-[(1-methylethyl)amino]pyridin-3-yl}-1,3,4-thiadiazol-2-yl)phenyl]oxy}-1-methylpropyl dihydrogen phosphate], for which the EC50 is 10 to 50 nM in experiment [1], no more than 10 nM in experiment [2], no more than 10 nM in experiment [3] (setting [5]) and greater than 250 nM in experiment [4].

As to `Cc1cc(-c2nnc(-c3cc(F)c(OC[C@H](N)[C@H](C)O)cc3Cl)s2)cc(NC(C)C)n1` [Entry 63, (2S,3S)-3-amino-4-{[5-chloro-2-fluoro-4-(5-{2-methyl-6-[(1-methylethyl)amino]pyridin-4-yl}-1,3,4-thiadiazol-2-yl)phenyl]oxy}butan-2-ol], the EC50 is 10 to 50 nM in experiment [1], no more than 10 nM in experiment [2], 10 to 50 nM in experiment [3] (read-out: Assay 2b EC50) and greater than 250 nM in experiment [4].

Consider `CC(C)Nc1cc(-c2nnc(-c3cc(F)c(OC[C@H](N)[C@@H](C)O)cc3Cl)s2)ccn1` [Entry 57], for which the concentration giving a half-maximal response (EC50) is 250 to 2800 nM in experiment [1], 50 to 250 nM in experiment [2], 50 to 250 nM in experiment [3] (read-out: Assay 2b EC50) and greater than 10000 nM in experiment [4].

As for `Cc1cc(-c2nnc(-c3cc(F)c(OC[C@H](N)[C@@H](C)O)cc3Cl)s2)ccc1OC(C)C` [Entry 60, (2R,3S)-3-amino-4-{[5-chloro-2-fluoro-4-(5-{3-methyl-4-[(1-methylethyl)oxy]phenyl}-1,3,4-thiadiazol-2-yl)phenyl]oxy}butan-2-ol], the EC50 in experiment [1] was 10 to 50 nM; in experiment [2], no more than 10 nM; in experiment [3] (read-out: Assay 2b EC50), 10 to 50 nM; in experiment [4], greater than 10000 nM.

`CC(C)N(C)c1cc(-c2nnc(-c3cc(F)c(OCC(N)CO)cc3Cl)s2)ccn1` (stereo not drawn) [Entry 41, 2-amino-3-{[5-chloro-2-fluoro-4-(5-{2-[methyl(1-methylethyl)amino]pyridin-4-yl}-1,3,4-thiadiazol-2-yl)phenyl]oxy}propan-1-ol]: the EC50 in experiment [1] was greater than 10000 nM; in experiment [2], 250 to 2800 nM; in experiment [3] (read-out: Assay 2b EC50), no more than 10 nM; in experiment [4], greater than 10000 nM.

As to `N#Cc1cc(-c2nnc(-c3cc(F)c(OC[C@H](N)CO)cc3Cl)s2)ccc1OC1COC1` [Entry 49, 5-[5-(4-{[(2R)-2-amino-3-hydroxypropyl]oxy}-2-chloro-5-fluorophenyl)-1,3,4-thiadiazol-2-yl]-2-(oxetan-3-yloxy)benzonitrile], the EC50 in experiment [1] was 50 to 250 nM; in experiment [2], no more than 10 nM; in experiment [3] (read-out: Assay 2b EC50), no more than 10 nM; in experiment [4], greater than 10000 nM.

`CC(C)Cc1ccc(-c2nnc(-c3cc(F)c(OC[C@H](N)CO)cc3Cl)s2)cc1` [Entry 3, (2R)-2-amino-3-[(5-chloro-2-fluoro-4-{5-[4-(2-methylpropyl)phenyl]-1,3,4-thiadiazol-2-yl}phenyl)oxy]propan-1-ol]: the EC50 in experiment [1] was 250 to 2800 nM; in experiment [2], 250 to 2800 nM; in experiment [3] (read-out: Assay 2b EC50), 50 to 250 nM; in experiment [4] it was greater than 10000 nM.

On to `CC(C)Oc1ccc(-c2nnc(-c3cc(F)c(OC[C@@H](N)CO)cc3Cl)s2)cc1Cl` [Entry 10, (2S)-2-amino-3-{[5-chloro-4-(5-{3-chloro-4-[(1-methylethyl)oxy]phenyl}-1,3,4-thiadiazol-2-yl)-2-fluorophenyl]oxy}propan-1-ol], for which the EC50 in experiment [1] is 10 to 50 nM; in experiment [2], no more than 10 nM; in experiment [3] (read-out: Assay 2b EC50), no more than 10 nM; in experiment [4], no more than 250 nM.

For `CC(C)Oc1ccc(-c2nnc(-c3cc(F)c(OC[C@H](N)CO)cc3Cl)s2)nc1Cl` [Entry 22, (2R)-2-amino-3-{[5-chloro-4-(5-{6-chloro-5-[(1-methylethyl)oxy]pyridin-2-yl}-1,3,4-thiadiazol-2-yl)-2-fluorophenyl]oxy}propan-1-ol], the EC50 was 50 to 250 nM in experiment [1], 10 to 50 nM in experiment [2], 10 to 50 nM in experiment [3] (read-out: Assay 2b EC50) and greater than 10000 nM in experiment [4].
